Laboratory results reported in patent publication US20240327450A1, “GLUCOSE DERIVATIVES AND ANTICANCER AGENT USING SAME” (ORBIO CORPORATION, priority 2021, published 2024).

Key:
[1] = test system: nutritional deficit pancreatic cancer cells; conditions: Onodera, T. et al. J. Biol. Chem. 295, 16678-16690, 2020; cited from earlier work
[2] = test system: mouse insulinoma MIN6 cells; assay: Cell death by Propidium Iodide (PI) signal in MIN6 cells; type: cell-based; conditions: for occurrence of cell death (PI) / PI-positive cell death: MIN6 cells at 5 DIV, 1,000 μM; for occurrence of cell death (PI): both 10-minute and 30-minute administrations, vs negative control KRB; for effect on the cells (proportion of dead cells, PI) / cytotoxicity (PI) eliminated by PHT: MIN6 cells at 11 DIV; for effect on the cells (proportion of dead cells, PI) / proportion of dead cells expressed as a PI value / cytotoxicity (PI) eliminated by PHT: 90 minutes; for effect on the cells (proportion of dead cells, PI) / proportion of dead cells expressed as a PI value: vs KRB solution alone; for proportion of dead cells expressed as a PI value: MIN6 cells at 11 DIV, 1,000 μM; for cytotoxicity (PI) eliminated by PHT: compound 1,000 μM, PHT 150 μM
Experimental: (§1) In this experiment, approximately 3,000 MIN6 cells per well were seeded in each well of a 96-well plate. When 5 DIV elapsed from initiation of culture, wells to which E2-ALG was administrated and wells to which E2-ADG was administrated were arranged in the same plate with minimal external disturbance, and administration was performed according to the previously established method (Sasaki, A. et al., Human Cell 2016, 29, 37-45). The E2-ALG was dissolved in a buffer to a concentration of 1,000 μM, administered to the MIN6 cells for 10 or 30 minutes, and then washed out with a buffer solution without the E2-ALG. Meanwhile, the E2-ADG at a concentration of 1,000 μM was administered in the same manner. Carbenoxolone was pre-dissolved in a buffer solution for the purpose of excluding uptake via Hemichannel and Gap junction (Sasaki, A. et al., Human Cell 2016, 29, 37-45).
An extent of occurrence of cell death was assessed using Propidium Iodide (PI), a red dye that is impermeable to a cell membrane. The PI was applied to the MIN6 cells simultaneously with the Calcein-AM. The principle of assessing cell death using PI is as follows. […] However, when the PI nonspecifically enters a cell due to loss of integrity of a cell membrane caused by deterioration of a cell state, the PI binds to a nucleus of the cell, causing the nucleus to emit red fluorescence. A degree of the red fluorescence was quantitatively measured using the CellVoyager CQ1, and image analysis was performed using the software attached to the CQ1. Additionally, the degree of occurrence of cell death was evaluated by statistically comparing the control group with the administration groups or the E2-ALG administration group with the E2-ADG administration group.
Using MIN6 cells with a passage number of 10 or less, E2-ALG or E2-ADG was applied to the MIN6 cells at a concentration of 1,000 μM for 90 minutes at 11 DIV of culture at a time when spheroids with a diameter of 100 μm or more are normally formed. Specifically, approximately 1,000 MIN6 cells per well were seeded in each well of a 96-well plate and E2-ALG was dissolved in a buffer to a concentration of 10 μM or 1,000 μM at 11 DIV, administered to the MIN6 cells for 90 minutes, and then rapidly washed out with a buffer solution without E2-ALG. Similarly, E2-ADG was applied simultaneously to other wells in the same plate. A cell death marker PI was used to statistically compare a control group with administration groups or an E2-ALG administration group with an E2-ADG administration group (FIG. 3).
Whether cell death in MIN6 cells caused by E2-ALG and E2-ADG was via a specific transport mechanism that is inhibited by PHT was analyzed on the same plate. […] The E2-ADG was also tested simultaneously in the same manner on the same plate and both were compared to a control.
(§2) An administration test was performed in the same manner as in Example 5-1, except that M2-ADG (synthesized in Example 1) was used instead of E2-ADG, and M2-ALG (synthesized in Example 3) was used instead of E2-ALG. However, the M2-ADG or the M2-ALG was administered for 30 minutes after 4 DIV from initiation of culture, and a concentration of the M2-ADG or the M2-ALG was 10 μM, 100 μM, or 1,000 μM.

[3] = test system: mouse insulinoma MIN6 cells; assay: Viable cell activity by Calcein-AM fluorescence in MIN6 cells; type: cell-based; conditions: for cellular activity expressed as Calcein intensity: MIN6 cells at 5 DIV, 1,000 μM, vs negative control KRB; for cellular activity as assessed with Calcein: 30 minutes, vs KRB alone
Experimental: Effects of E2-ADG (synthesized in Example 2) and E2-ALG (synthesized in Example 4) on proliferation of cells were examined. A pancreatic beta cell line (insulinoma) MIN6 from mouse pancreas (Miyazaki J. et al., Endocrinology 127: 126-132, 1990) was used as the cells, and all experiments were performed using early passage cells with a passage number of 10 or less.
as §1
A change in cellular activity was assessed using a live cell marker Calcein-AM. The Calcein-AM is permeable to a cell membrane, and after entering a cell, an AM moiety is cleaved by an esterase activity of the cell to produce Calcein which emits green fluorescence. The Calcein-AM was applied to the MIN6 cells according to a conventional method, green fluorescence emitted by the cells was quantitatively measured using a confocal quantitative image cytometer CellVoyager CQ1 (Yokogawa Electric Corporation), and image analysis was performed using software attached to the CQ1. A difference between an E2-ALG administration group and an E2-ADG administration group was statistically compared using Stat View 5.0. The Bonferroni-Dunn test was used for the statistical comparison. A value shown by MIN6 cells at the same time as above in a Krebs-Ringer buffer (KRB) solution without E2-ALG or E2-ADG was used as a negative control.
as §2

[4] = test system: colon cancer cells; conditions: Et3PAuCl alone; ACS Med. Chem. Lett. 8: 997-1001, 2017; cited from earlier work
[5] = MIN6 cells at 4 DIV, 10 μM, 30 minutes, vs negative control
[6] = MIN6 cells at 4 DIV, 100 μM, 30 minutes, vs negative control
[7] = MIN6 cells at 4 DIV, 1,000 μM, 30 minutes

CC(=O)OC[C@H]1O[C@@H]([S-])[C@H](OC(C)=O)[C@@H](OC(C)=O)[C@@H]1OC(C)=O.CCP(CC)CC.[Au+] [Auranofin]
effect in nutritional deficit pancreatic cancer cells [1]: effective

CCP(CC)CC.OC[C@H]1OC(O)[C@H]([S][Au])[C@@H](O)[C@@H]1O (stereo partly drawn) [Compound E2-ADG]
occurrence of cell death (PI) [2]: no statistically significant difference
effect on the cells (proportion of dead cells, PI) ([2]; 10 μM): larger than that of the negative control (the KRB solution alone) as an average value, but not significantly different
proportion of dead cells expressed as a PI value [2]: significant increase in a proportion of dead cells
cytotoxicity (PI) eliminated by PHT [2]: approximately 75%
cellular activity expressed as Calcein intensity ([3]; 10-minute administration): slightly lower than that for the E2-ALG, but there was no statistically significant difference therebetween
cellular activity expressed as Calcein intensity ([3]; 30-minute administration): clear decrease in cellular activity

CCP(CC)CC.OC[C@@H]1OC(O)[C@@H]([S][Au])[C@H](O)[C@H]1O (stereo partly drawn) [Compound E2-ALG]
occurrence of cell death (PI) [2]: no statistically significant difference
effect on the cells (proportion of dead cells, PI) ([2]; 10 μM): larger than that of the negative control (the KRB solution alone) as an average value, but not significantly different
proportion of dead cells expressed as a PI value [2]: significant increase in a proportion of dead cells
cytotoxicity (PI) eliminated by PHT [2]: approximately 75%
cellular activity expressed as Calcein intensity ([3]; 10-minute administration): slightly decreased an average value of the cellular activity compared to the negative control group, but there was no statistically significant difference
cellular activity expressed as Calcein intensity ([3]; 30-minute administration): the cellular activity was clearly decreased compared to the negative control

CP(C)C.OC[C@H]1OC(O)[C@H]([S][Au])[C@@H](O)[C@@H]1O (stereo partly drawn) [Compound M2-ADG]
degree of cell death (PI) [2, 5]: no difference in a degree of cell death
degree of cell death (PI) [2, 6]: an average value increased, but there was still no significant difference from the negative control
degree of cell death (PI) [2, 7]: clear cell death was observed
cellular activity as assessed with Calcein ([3]; MIN6 cells at 4 DIV, 10 μM): no significant difference in cellular activity
cellular activity as assessed with Calcein ([3]; MIN6 cells at 4 DIV, 100 μM): no significant difference in cellular activity
cellular activity as assessed with Calcein ([3]; MIN6 cells at 4 DIV, 1,000 μM): significant decrease in cellular activity

CP(C)C.OC[C@@H]1OC(O)[C@@H]([S][Au])[C@H](O)[C@H]1O (stereo partly drawn) [Compound M2-ALG]
degree of cell death (PI) [2, 5]: no difference in a degree of cell death
degree of cell death (PI) [2, 6]: an average value increased, but there was still no significant difference from the negative control
degree of cell death (PI) [2, 7]: clear cell death was observed
cellular activity as assessed with Calcein ([3]; MIN6 cells at 4 DIV, 10 μM): no significant difference in cellular activity
cellular activity as assessed with Calcein ([3]; MIN6 cells at 4 DIV, 100 μM): no significant difference in cellular activity
cellular activity as assessed with Calcein ([3]; MIN6 cells at 4 DIV, 1,000 μM): significant decrease in cellular activity

CC[PH](CC)(CC)[Au][S][C@@H]1OC(CO)[C@@H](O)[C@H](O)C1O (stereo partly drawn) [DGG, reference compound]
PI-positive cell death ([2]; 10 minutes): more PI-positive cell death than the negative control
PI-positive cell death ([2]; 30 minutes): distinct PI-positive cell death

CCP(CC)CC.[Au+].[Cl-] [Et3PAuCl, chloro(triethylphosphine)gold(I)]
cytotoxicity to colon cancer cells [4]: cytotoxic

CC[PH](CC)(CC)[Au][S][C@H]1O[C@@H](CO)[C@H](O)[C@@H](O)[C@@H]1O [LGG, reference compound]
PI-positive cell death ([2]; 10 minutes): PI-positive cell death comparable to that of the negative control
PI-positive cell death ([2]; 30 minutes): only about as much PI-positive cell death as a negative control group
